Consider one compound from patent publication US7855174B2 (priority 2007, dated 2010).

One assay concerns rat mesenteric arteries. Briefly: tissue or blood.
A further assay has as its system MLC. The arrangement: species or system rat.

Like-named read-outs stand apart in the source and are kept apart here.

Consider `NC[C@H](O)c1ccc(O)c(O)c1` [NE, norepinephrine], for which the EC50 in the assay with rat mesenteric arteries (read-out: EC50 of concentration-contraction relationship) was 1100 nM; with rat mesenteric arteries (read-out: apparent EC50 for NE (contraction)) it was 34 nM; with rat mesenteric arteries (read-out: approximate EC50 in isolated vessels) it was roughly 1000 nM. Also, the “change of Ser19 pMLC and total pMLC with concentration” value in the assay with MLC was “increases in both total pMLC and Ser19 pMLC”.
